How the values were obtained:
[1] = system: LFP oscillations in the visual cortex; experiment: In vivo electrophysiology: LFP power and 40 Hz entrainment in visual cortex; design: species or system mouse
Protocol: Next, it was aimed to understand how these treatments impacted the LFP oscillations and neuronal action potentials. First, in vivo awake animal electrophysiology was performed using high-density linear probes and verified whether 5×FAD mice with reduced microglia by Plx3397 treatment can entrain 40 Hz sensory stimulation. […] At the group level gamma stimulation increased gamma but not theta power as expected based on previous findings (2 W ANOVA, groups x frequency, F (1,6)=32.03, P=0.0013) (FIGS. 15A, 15B).
Mice were anaesthetized with isoflurane, restrained in a stereotactic apparatus and craniotomies were made exposing the visual cortex (AP: −3.2 & ML: +2.5). […] The reference electrode was targeted to the white matter tract above the hippocampus. Mice were allowed to recover for a period of 4 days.
Following a 2-3-day habitation period for the recording, recordings commenced with the animal allowed to move freely in their home cages. Data were acquired using Neuralynx SX system (Neuralynx, Bozeman, Mont., USA) and signals were sampled at 32,000 Hz. The position of animals was tracked using red light-emitting diodes affixed to the probes. At the conclusion of the experiment, mice underwent terminal anesthesia and electrode positions were marked by electrolytic lesioning of brain tissue with […] current for 10 s through each electrode individually, to confirm their anatomical location.
LFPs were first filtered to the Nyquist frequency of the target sampling rate then downsampled to 1000 Hz. Power spectral analyses were performed using the pwelch function in MATLAB using a 500 ms time window with a 50% overlap.
Mice were anaesthetized with isoflurane, restrained in a stereotactic apparatus and craniotomies were made exposing the visual cortex. Specifically, a 2×2 mm piece of skull was removed using a dental drill, which was above the V1 (stereotaxic 826 coordinates relative to bregma; AP −3.2; ML+2.5); during this entire procedure, the dura was kept intact and moist with saline. Following the skull removal from above both the right V1, two additional drilling holes above the frontal cortex were made and two skull screws were placed. […] The probe was grounded to skull screw above the cerebellum. Petroleum jelly (Vaseline, 100% white petrolatum) was gently applied on the cranial window without touching the probe/electrodes, which protected both the brain and probe/electrode. Next, the probe was further lowered and/or adjusted to reach the target depth. Finally, the probe was cemented on the skull with dental cements, first with a metabond (Parkell, C&B Metabond Quick Adhesive Cement System, #836 SKU:S380) followed by a dental cement from Steolting (#51459). Mice were allowed to recover for a period of 4 days.
Data analyses: LFPs were first filtered to the Nyquist frequency of the target sampling rate then down-sampled to 1000 Hz. Power spectral analyses were performed using the pwelch function in MATLAB using a 500 ms time window with a 50% overlap.
Time-frequency representation of LFP: The LFP data were down sampled to 1,000 Hz. For the calculation of the wavelet power spectrum, the continuous wavelet transforms (CWT) was applied to the LFP using complex Morlet wavelets returning amplitudes at 226 intervals between 1-100 Hz. CWT based wavelet power spectrum was shown in FIG. 21A, FIG. 26C, and FIG. 27C. For visualizing 40 Hz entrainment at finer frequency resolution, multitaper spectral analysis using Chronux toolbox was used.

[2] = system: excitatory neurons and interneurons of the visual cortex; experiment: In vivo electrophysiology: single unit spiking and LFP phase locking; design: species or system mouse
Protocol: Next, principal component analyses was performed using action potential properties, isolated single units, and further separated them into excitatory and interneurons (FIG. 15A).
Single units were manually isolated by drawing cluster boundaries around the 3D projection of the recorded spikes, presented in SpikeSort3D software (Neuralynx).
The relationship between spike firing times and LFP gamma phase was calculated by mean resultant length using the Circular Statistics Toolbox. Briefly, spikes were sorted and LFP traces were filtered using the continuous wavelet transform returning the instantaneous signal phase and amplitudes. Spike times were linearly interpolated to determine phase, with peaks and troughs of gamma defined as 0 and ±pi radians respectively. The resulting phase values were binned to generate firing probabilities, for each 20-degree interval. […] All analyses were performed using MATLAB.
Spikes: Single units were manually isolated by drawing cluster boundaries around the 3D projection of the recorded spikes, presented in SpikeSort3D software (Neuralynx).
Single unit—LFP phase locking: The relationship between spike spiking times and LFP gamma phase was calculated by mean resultant length using the Circular Statistics Toolbox MATLAB File Exchange Function.
Briefly, spikes were sorted and LFP traces were filtered using the continuous wavelet transform returning the instantaneous signal phase and amplitudes. Spike times were linearly interpolated to determine phase, with peaks and troughs of gamma defined as 0 and ±pi radians respectively. The resulting phase values were binned to generate spiking probabilities, for each 20-degree interval. […] All analyses were performed using MATLAB. All in vivo electrophysiological analyses were conducted in MATLAB (Mathworks, #R2019a) utilizing signal processing and image processing toolboxes.

[3] = 5×FAD mice, Plx3397 diet 50 days vs control
[4] = Plx3397 treated 5×FAD mice, baseline
[5] = Plx3397 treated 5×FAD mice, during acute 40 Hz entrainment

FC(F)(F)c1ccc(CNc2ccc(Cc3c[nH]c4ncc(Cl)cc34)cn2)cn1 [Plx3397, Pexidartinib]
entrainment of 40 Hz sensory stimulation ([1]; 5×FAD mice with microglia reduced by Plx3397, awake recording): can indeed entrain 40 Hz | LFP spectral power [1, 3]: no significant difference | time-resolved LFP gamma and theta power ([1]; 5×FAD mice, chronic Plx3397 administration): elevated power of gamma and theta that occur incongruently | gamma response latency ([1]; 5×FAD mice, untreated vs Plx3397 treated): comparable | power of 40 Hz entrainment compared to control 5×FAD mice ([1]; Plx3397 administered 5×FAD mice, acute 40 Hz stimulation): higher | aberrant theta-bursts ([1]; Plx3397 treated 5×FAD mice during acute 40 Hz visual stimulation): reduced | overall mean spiking rate of E-neurons and I-neurons [2, 3]: no differences | % of E-neurons and I-neurons phase-locked to 3-12 Hz theta oscillations ([2]; 5×FAD mice, Plx3397 vs control): reduction | percentage of E-neurons and I-neurons phase-locked to 30-50 Hz gamma oscillations ([2]; 5×FAD mice, Plx3397 vs control): less phase-locked | strength of phase-locked neurons to gamma oscillations ([2]; 5×FAD mice, Plx3397 vs control): without significant difference | strength of theta phase-locking of neurons ([2]; 5×FAD mice, Plx3397 vs control): increase | I-neurons showing 40 Hz entrainment ([2]; Plx3397 treated 5×FAD mice, acute 40 Hz entrainment, of the 47 I-neurons): 13 neurons | percentage of I-neurons phase-locked to gamma [2, 4]: 34.04% | percentage of gamma phase-locked E-neurons [2, 4]: 35.64% | percentage of I-neurons phase-locked to gamma [2, 5]: 65.95% | percentage of gamma phase-locked E-neurons [2, 5]: 46.53% | gamma phase-locking strength of E-neurons and I-neurons ([2]; Plx3397 treated 5×FAD mice, during acute 40 Hz entrainment vs baseline): enhanced

— patent US20230181905A1, “Systems, Devices, and Methods for Enhancing the Neuroprotective Effects of Non-Invasive Gamma Stimulation with Pharmacological Agents” (Massachusetts Institute of Technology, priority 2021, published 2023)
